What was measured:
[1] = system: Dermatophyten und Schimmelpilze; Hefen; experiment: Antimycotic in-vitro activity, serial dilution test; type: cell-based; conditions: Reihenverdünnungstest, 5 x 10^4 Keimen/ml Substrat, 20°C, 24 bis 96 Stunden; compared with prior-art compounds (A) and (B)
Protocol: Die in-vitro-Prüfungen wurden im Reihenverdünnungstest mit Keiminokula von durchschnittlich 5 x 10^4 Keimen/ml Substrat durchgeführt. Als Nährmedium dienten • a) für Dermatophyten und Schimmelpilze: Sabourand's milieu d'épreuve • b) für Hefen: Fleischextrakt-Traubenzucker-Bouillon.
Die Bebrütungstemperatur betrug 20°C, die Bebrütungsdauer lag bei 24 bis 96 Stunden.

Candida = experiment: Antimycotic in-vivo activity (oral) in mouse candidosis; conditions: Mäuse SPF-CF1 infected i.v. with 1 - 2 x 10^6 Candida-Zellen, 50 - 100mg/ kg one hour before and seven hours after infection, survival, compared with (A) and (B)
Protocol: Mäuse vom Typ SPF-CF1 wurden intravenös mit 1 - 2 x 10^6 logarithmisch wachsenden Candida-Zellen, die in physiologischer Kochsalzlösung suspendiert werden, infiziert. Eine Stunde vor und sieben Stunden nach der Infektion werden die Tiere mit jeweils 50 - 100mg/ kg Körpergewicht der Präparate oral behandelt.
Unbehandelte Tiere starben 3 bis 6 Tage post infektionen. Die Ueberlebensrate am 6.Tag post infektionem betrug bei unbehandelten Kontrolltieren etwa 5 %. In diesem Test zeigen z.B. die erfindungsgemäßen Verbindungen 3, 9.

Row | SMILES | antimykotische Wirkung [1] | Wirkung (Candida)
1 | CC(C)(C)C(O)/C(=C\c1ccc(SC(F)(F)F)cc1)n1cncn1 (stereo not drawn) [Beispiel 16] | bessere antimykotische Wirkung als die aus dem Stand der Technik bekannten Verbindungen (A) und (B) | –
2 | CC(C)(C)C(O)/C(=C\c1ccc([N+](=O)[O-])cc1)n1cncn1 (stereo not drawn) [Beispiel 10] | bessere antimykotische Wirkung als die aus dem Stand der Technik bekannten Verbindungen (A) und (B) | bessere Wirkung als die aus dem Stand der Technik bekannten Verbindungen (A) und (B)
3 | CC(C)(C)C(O)/C(=C\c1ccc(OC(F)(F)F)cc1)n1cncn1 (stereo not drawn) [Beispiel 14] | bessere antimykotische Wirkung als die aus dem Stand der Technik bekannten Verbindungen (A) und (B) | bessere Wirkung als die aus dem Stand der Technik bekannten Verbindungen (A) und (B)
4 | CC(C)(C)C(O)/C(=C\c1ccc(C(F)(F)F)c(Cl)c1)n1cncn1 (stereo not drawn) [Beispiel 20] | bessere antimykotische Wirkung als die aus dem Stand der Technik bekannten Verbindungen (A) und (B) | –
5 | CC(C)(C)C(O)/C(=C/c1ccc([N+](=O)[O-])cc1)n1cncn1 (stereo not drawn) [Beispiel 9] | – | bessere Wirkung als die aus dem Stand der Technik bekannten Verbindungen (A) und (B)
6 | CC(C)(C)C(O)/C(=C\c1ccccc1C(F)(F)F)n1cncn1 (stereo not drawn) [Beispiel 2, 4.4-Dimethyl-2-(1,2,4-triazol-1-yl)-1-(2-trifluormethylphenyl)-1-penten-3-ol] | bessere antimykotische Wirkung als die aus dem Stand der Technik bekannten Verbindungen (A) und (B) | –
7 | CC(C)(C)C(O)/C(=C\c1ccc(C(F)(F)F)cc1)n1cncn1 (stereo not drawn) [Beispiel 18] | bessere antimykotische Wirkung als die aus dem Stand der Technik bekannten Verbindungen (A) und (B) | bessere Wirkung als die aus dem Stand der Technik bekannten Verbindungen (A) und (B)
8 | CC(C)(C)C(O)/C(=C\c1ccc(C(F)(F)F)cc1Cl)n1cncn1 (stereo not drawn) [Beispiel 12] | bessere antimykotische Wirkung als die aus dem Stand der Technik bekannten Verbindungen (A) und (B) | bessere Wirkung als die aus dem Stand der Technik bekannten Verbindungen (A) und (B)
9 | CC(C)(C)C(O)C(=Cc1ccc(C(F)(F)F)cc1)n1cncn1 (stereo not drawn) [Beispiel 3, 4,4-Dimethyl-2-(1,2,4-triazol-1-yl)-1-(4-trifluormethylphenyl)-1-penten-3-ol] | bessere antimykotische Wirkung als die aus dem Stand der Technik bekannten Verbindungen (A) und (B) | bessere Wirkung als die aus dem Stand der Technik bekannten Verbindungen (A) und (B)
10 | CC(C)(C)C(O)/C(=C\c1ccc(OC(F)(F)F)c(Cl)c1)n1cncn1 (stereo not drawn) [Beispiel 22] | bessere antimykotische Wirkung als die aus dem Stand der Technik bekannten Verbindungen (A) und (B) | –
